Data on 3 compounds can be found in patent US20120101098A1, “3,28-DISUBSTITUTED BETULINIC ACID DERIVATIVES AS ANTI-HIV AGENTS” (priority 2009, published 2012).

In one series the test system is HIV-1IIIB. Nature of the series: HIV-1IIIB replication inhibition assay in MT-2 lymphocytes (p24 antigen ELISA). It is filed as cell-based. The settings on record: HIV-1IIIB infected MT-2 cell lines, concentration that inhibits HIV-1IIIB replication by 50%, NS: no suppression at concentrations below the CC50.
A short description of series [1]: in vitro. Particulars: human, mock-infected MT-2 cells.
Experimental: (§1) HIV-1IIIB Replication Inhibition Assay in MT-2 Lymphocytes. The evaluation of HIV-1 inhibition was carried out as follows. […] Control wells containing virus and cells only (no drug) and cells only (no virus or drug) were also prepared. A second identical set of samples were added to cells under the same conditions without virus (mock infection) for cytotoxicity determinations (CC50 defined below). […] On day 4 PI, the assay was terminated and culture supernatants were harvested for p24 antigen ELISA analysis. The compound cytotoxicity was determined by XTT using the mock-infected sample wells.
For series [2] the following is noted: human, microsomes.
In the next series the test system is HIV-1. Nature of the series: Example 2 anti-HIV bioassay of C-28 ethylene glycol bevirimat analogs. It is filed as cell-based. The settings on record: Human immunodeficiency virus 1; Example 2 compounds (Scheme B).
Series [3] is described as follows: in vitro.

SMILES strings stand for the structures.

Experimental for HIV-1IIIB: as §1
Experimental for mock-infected MT-2 cell: as §1

Turning to `C=C(CBr)[C@@H]1CC[C@]2(C(=O)NC(CC(C)C)C(=O)O)CC[C@]3(C)[C@H](CC[C@@H]4[C@@]5(C)CC[C@H](OC(=O)CC(C)(C)C(=O)O)C(C)(C)[C@@H]5CC[C@]43C)[C@@H]12` (stereo partly drawn) [Compound 30, N-[3β-O-(3′,3′-Dimethylsuccinyl)-30-bromo-lup-20(29)-en-28-oyl]-leucine], the melting point was in the range of 105 to 107 °C. In the series with HIV-1IIIB (Human immunodeficiency virus 1, MT2), this compound came in with an EC50 of 0.011 µM. The CC50 at 4 day in the series “in vitro [1]” is 33.2 µM.

For `C=C(C)[C@@H]1CC[C@]2(C(=O)NCCCCCCCC(=O)O)CC[C@]3(C)[C@H](CC[C@@H]4[C@@]5(C)CC[C@H](O)C(C)(C)[C@@H]5CC[C@]43C)[C@@H]12` [Compound 23, N-[3β-Hydroxy-lup-20(29)-en-28-oyl]-8-aminooctanoic acid], the EC50 in the series with HIV-1IIIB was 3.3 µM. Besides, the CC50 in the series on mock-infected MT-2 cell turned out to be 33.4 µM. Also, the “half life (t1/2, time to lose 50% of parent)” value in series [2] is recorded as “around 35 min”.

`C=C(C)[C@@H]1CC[C@]2(C(=O)O)CC[C@]3(C)[C@H](CC[C@@H]4[C@@]5(C)CC[C@H](OC(=O)CC(C)(C)C(=O)O)C(C)(C)[C@@H]5CC[C@]43C)[C@@H]12` [Compound 2, bevirimat, reference compound] returned a concentration for a half-maximal effect (EC50) in the series on HIV-1 of 0.063 µM. The compound further yielded a CC50 in the series “in vitro [3]” of 16.3 µM.
